Results taken from patent US12649750B2, “Macrocyclic compounds, compositions, and methods of using thereof” (Sionna Therapeutics Inc., priority 2022, dated 2026).

What was measured:
NBD1 = target: T1, NBD1 (Homo sapiens, UniProt P13569); assay: Aggregation analysis using differential static light scattering (DSLS), thermal stability of NBD1 (ΔTagg); assay type: binding; conditions: ΔTagg versus DMSO control, NBD1 0.2 mg/ml
T1 construct: Purified recombinant NBD1 was produced using previously described methods; made in house
Outline: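 Differential static light scattering read from 25° C. to 70° C. every 0.5° C., ramp 1° C./min, on recombinant NBD1 (0.2 mg/ml; Tris/NaCl/MgCl2 buffer with 2 mM ATP, 2 mM DTT, pH 7.6, 1% glycerol) plus compound. Reported ΔTagg subtracts averaged DMSO Tagg from inflection-point Tagg; categories A ≤5, B >5-10, C >10-25° C.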

CFTR = target: T2, CFTR (Homo sapiens, UniProt P13569, DEL508-508); assay: TECC24 AUC fold over DMSO @10 μM, CFTR-mediated transepithelial chloride transport in CF-HBE cells; assay type: cell-based; conditions: test agent AUC divided by DMSO vehicle AUC, primary CF-HBE cells, ΔF508 homozygous donor, 48 hours incubation
T2 construct: Primary human bronchial epithelial cells from a ΔF508 homozygous CF donor; host or cells: primary human bronchial epithelial cells (CF-HBE), ΔF508 homozygous donor
Outline: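 Primary ΔF508-homozygous CF bronchial epithelial cells on inserts were incubated 48 h at 36.5 °C with compound in IL-13-containing medium. VT and TEER were then recorded in current-clamp mode (pH 7.4 HEPES bath) with benzamil 10 μM, forskolin 10 μM, then CFTR inhibitor-172 20 μM. The IEQ AUC between forskolin and inhibitor was divided by vehicle AUC.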

T2 sequence (P13569 with tags, fused parts or gaps DEL508-508): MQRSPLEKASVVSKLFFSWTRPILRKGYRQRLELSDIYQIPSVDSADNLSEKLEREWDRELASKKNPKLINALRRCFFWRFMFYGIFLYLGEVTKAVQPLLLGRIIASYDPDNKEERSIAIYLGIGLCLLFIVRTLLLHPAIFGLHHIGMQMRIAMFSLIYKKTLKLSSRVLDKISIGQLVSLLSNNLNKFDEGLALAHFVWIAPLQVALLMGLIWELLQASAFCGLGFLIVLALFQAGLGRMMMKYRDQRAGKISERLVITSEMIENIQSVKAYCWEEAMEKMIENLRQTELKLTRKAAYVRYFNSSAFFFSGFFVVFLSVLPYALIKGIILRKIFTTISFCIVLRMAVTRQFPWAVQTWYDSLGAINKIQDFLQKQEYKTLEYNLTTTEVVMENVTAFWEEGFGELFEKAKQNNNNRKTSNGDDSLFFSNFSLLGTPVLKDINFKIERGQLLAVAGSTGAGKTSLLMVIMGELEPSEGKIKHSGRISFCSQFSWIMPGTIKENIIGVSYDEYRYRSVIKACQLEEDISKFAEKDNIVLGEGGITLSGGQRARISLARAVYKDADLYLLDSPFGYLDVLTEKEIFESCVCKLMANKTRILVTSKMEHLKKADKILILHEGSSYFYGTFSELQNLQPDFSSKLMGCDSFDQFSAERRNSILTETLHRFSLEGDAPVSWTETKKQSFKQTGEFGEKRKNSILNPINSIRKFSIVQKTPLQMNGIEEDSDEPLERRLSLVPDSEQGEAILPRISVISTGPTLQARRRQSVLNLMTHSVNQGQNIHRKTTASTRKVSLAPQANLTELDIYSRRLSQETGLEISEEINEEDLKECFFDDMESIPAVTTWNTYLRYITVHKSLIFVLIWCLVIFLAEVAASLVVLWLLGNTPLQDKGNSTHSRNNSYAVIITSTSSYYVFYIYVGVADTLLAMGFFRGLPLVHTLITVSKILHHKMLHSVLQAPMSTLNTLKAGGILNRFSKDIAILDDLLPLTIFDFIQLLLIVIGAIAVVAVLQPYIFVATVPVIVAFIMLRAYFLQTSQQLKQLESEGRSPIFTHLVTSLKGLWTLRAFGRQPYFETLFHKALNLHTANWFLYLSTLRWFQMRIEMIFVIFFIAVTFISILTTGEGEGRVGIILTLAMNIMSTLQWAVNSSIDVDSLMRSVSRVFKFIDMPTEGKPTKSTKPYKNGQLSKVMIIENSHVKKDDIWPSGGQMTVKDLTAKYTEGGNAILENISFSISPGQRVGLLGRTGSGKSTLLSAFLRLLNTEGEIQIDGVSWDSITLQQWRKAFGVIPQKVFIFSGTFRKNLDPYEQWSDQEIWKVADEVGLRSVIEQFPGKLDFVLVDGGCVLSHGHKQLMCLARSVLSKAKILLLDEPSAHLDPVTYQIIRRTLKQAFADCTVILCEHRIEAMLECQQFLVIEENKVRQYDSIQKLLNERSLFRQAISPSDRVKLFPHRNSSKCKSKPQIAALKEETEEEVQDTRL
T1 sequence (P13569 423-646 limits assumed): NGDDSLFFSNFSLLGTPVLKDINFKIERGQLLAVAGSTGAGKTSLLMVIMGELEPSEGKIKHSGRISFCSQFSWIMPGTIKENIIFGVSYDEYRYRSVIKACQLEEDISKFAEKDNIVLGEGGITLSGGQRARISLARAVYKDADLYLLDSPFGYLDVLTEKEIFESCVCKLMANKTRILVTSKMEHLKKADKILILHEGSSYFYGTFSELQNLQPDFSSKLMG

| SMILES | DSLS 3D (100 μM ΔT) (NBD1) | TECC (AUC, 10 μM) (CFTR) |
| --- | --- | --- |
| [2H]C([2H])([2H])C1(c2cccc(CC(C)C(=O)O)c2)CCC(C)(C)CCS(=O)(=O)CCc2c(c(F)cc3[nH]ccc23)Oc2ccc(F)c(c2)-c2nc1nn2C (single isomer, unassigned) [Compound 119B, 3-[3-[22,28-difluoro-3,9,9-trimethyl-12,12-dioxo-6-(trideuteriomethyl)-24-oxa-12lambda6-thia-3,4,19,30-tetrazapentacyclo[23.3.1.12,5.015,23.016,20]triaconta-1(29),2(30),4,15,17,20,22,25,27-nonaen-6-yl]phenyl]-2-methyl-propanoic acid] | B (a value above 5 °C and less than or equal to 10 °C is marked “B”) | A (a TECC value less than 12 is marked “A”) |
| [2H]C([2H])([2H])C1(c2cccc(CC3(C(=O)O)CC3)c2)CCCC(C)(C)CS(=O)(=O)CCc2c(c(F)cc3[nH]ccc23)Oc2ccc(F)c(c2)-c2nc1nn2C (single isomer, unassigned) [Compound 120A, 1-[[3-[22,28-difluoro-3,10,10-trimethyl-12,12-dioxo-6-(trideuteriomethyl)-24-oxa-12λ6-thia-3,4,19,30-tetrazapentacyclo[23.3.1.12,5.015,23.016,20]triaconta-1(29),2(30),4,15,17,20,22,25,27-nonaen-6-yl]phenyl]methyl]cyclopropanecarboxylic Acid] | C (a value greater than 10 °C and less than or equal to 25 °C is marked “C”) | A (a TECC value less than 12 is marked “A”) |
| [2H]C([2H])([2H])C1(c2cccc(CC3(C(=O)O)CC3)c2)CCCC(C)(C)CS(=O)(=O)CCc2c(c(F)cc3[nH]ccc23)Oc2ccc(F)c(c2)-c2nc1nn2C (single isomer, unassigned) [Compound 120B, 1-[[3-[22,28-difluoro-3,10,10-trimethyl-12,12-dioxo-6-(trideuteriomethyl)-24-oxa-12λ6-thia-3,4,19,30-tetrazapentacyclo[23.3.1.12,5.015,23.016,20]triaconta-1(29),2(30),4,15,17,20,22,25,27-nonaen-6-yl]phenyl]methyl]cyclopropanecarboxylic Acid] | A (an ΔTagg value less than or equal to 5 °C is marked “A”) | A (a TECC value less than 12 is marked “A”) |
| Cn1nc2nc1-c1cc(ccc1F)Oc1c(F)c(F)c3[nH]ccc3c1CCS(=O)(=O)CC(C)(C)CCCC2(C#N)c1cccc(CC2(C(=O)O)CC2)c1 (single isomer, unassigned) [Compound 121A, 1-[[3-(6-cyano-21,22,28-trifluoro-3,10,10-trimethyl-12,12-dioxo-24-oxa-12λ6-thia-3,4,19,30-tetrazapentacyclo[23.3.1.12,5.015,23.016,20]triaconta-1(29),2(30),4,15,17,20,22,25,27-nonaen-6-yl)phenyl]methyl]cyclopropanecarboxylic Acid] | C (a value greater than 10 °C and less than or equal to 25 °C is marked “C”) | B (a value between 12-20 is marked “B”) |
| Cn1nc2nc1-c1cc(ccc1F)Oc1c(F)c(F)c3[nH]ccc3c1CCS(=O)(=O)CC(C)(C)CCCC2(C#N)c1cccc(CC2(C(=O)O)CC2)c1 (single isomer, unassigned) [Compound 121B, 1-[[3-(6-cyano-21,22,28-trifluoro-3,10,10-trimethyl-12,12-dioxo-24-oxa-12λ6-thia-3,4,19,30-tetrazapentacyclo[23.3.1.12,5.015,23.016,20]triaconta-1(29),2(30),4,15,17,20,22,25,27-nonaen-6-yl)phenyl]methyl]cyclopropanecarboxylic Acid] | A (an ΔTagg value less than or equal to 5 °C is marked “A”) | A (a TECC value less than 12 is marked “A”) |
| Cn1nc2nc1-c1cc(ccc1F)Oc1c(F)cc3[nH]ccc3c1CCS(=O)(=O)CC(C)(C)CCCC2(C#N)c1cccc(CC2(C(=O)O)CC2)c1 (single isomer, unassigned) [Compound 122A, 1-[[3-(6-cyano-22,28-difluoro-3,10,10-trimethyl-12,12-dioxo-24-oxa-12λ6-thia-3,4,19,30-tetrazapentacyclo[23.3.1.12,5.015,23.016,20]triaconta-1(29),2(30),4,15,17,20,22,25,27-nonaen-6-yl)phenyl]methyl]cyclopropanecarboxylic Acid] | C (a value greater than 10 °C and less than or equal to 25 °C is marked “C”) | A (a TECC value less than 12 is marked “A”) |
| Cn1nc2nc1-c1cc(ccc1F)Oc1c(F)cc3[nH]ccc3c1CCS(=O)(=O)CC(C)(C)CCCC2(C#N)c1cccc(CC2(C(=O)O)CC2)c1 (single isomer, unassigned) [Compound 122B, 1-[[3-(6-cyano-22,28-difluoro-3,10,10-trimethyl-12,12-dioxo-24-oxa-12λ6-thia-3,4,19,30-tetrazapentacyclo[23.3.1.12,5.015,23.016,20]triaconta-1(29),2(30),4,15,17,20,22,25,27-nonaen-6-yl)phenyl]methyl]cyclopropanecarboxylic Acid] | A (an ΔTagg value less than or equal to 5 °C is marked “A”) | A (a TECC value less than 12 is marked “A”) |
| Cn1nc2nc1-c1cc(ccc1F)Oc1c(F)cc3[nH]ccc3c1CCS(=O)(=O)CC(C)(C)OCCC2(C#N)c1cccc(CC2(C(=O)O)CC2)c1 (single isomer, unassigned) [Compound 123A, 1-[[3-(6-cyano-22,28-difluoro-3,10,10-trimethyl-12,12-dioxo-9,24-dioxa-12λ6-thia-3,4,19,30-tetrazapentacyclo[23.3.1.12,5.015,23.016,20]triaconta-1(29),2(30),4,15,17,20,22,25,27-nonaen-6-yl)phenyl]methyl]cyclopropanecarboxylic Acid] | A (an ΔTagg value less than or equal to 5 °C is marked “A”) | A (a TECC value less than 12 is marked “A”) |
| Cn1nc2nc1-c1cc(ccc1F)Oc1c(F)cc3[nH]ccc3c1CCS(=O)(=O)CC(C)(C)OCCC2(C#N)c1cccc(CC2(C(=O)O)CC2)c1 (single isomer, unassigned) [Compound 123B, 1-[[3-(6-cyano-22,28-difluoro-3,10,10-trimethyl-12,12-dioxo-9,24-dioxa-12λ6-thia-3,4,19,30-tetrazapentacyclo[23.3.1.12,5.015,23.016,20]triaconta-1(29),2(30),4,15,17,20,22,25,27-nonaen-6-yl)phenyl]methyl]cyclopropanecarboxylic Acid] | C (a value greater than 10 °C and less than or equal to 25 °C is marked “C”) | A (a TECC value less than 12 is marked “A”) |
| CC(Cc1cccc(C2(C#N)CCCC(C)(C)CS(=O)(=O)CCc3c(c(F)cc4[nH]ccc34)Oc3ccc(F)c(c3)-c3nc2nn3C)c1F)C(=O)O (single isomer, unassigned) [Compound 124A, 3-[3-(6-cyano-22,28-difluoro-3,10,10-trimethyl-12,12-dioxo-24-oxa-12λ6-thia-3,4,19,30-tetrazapentacyclo-[23.3.1.12,5.015,23.016,20]triaconta-1(29),2(30),4,15,17,20,22,25,27-nonaen-6-yl)-2-fluoro-phenyl]-2-methyl-propanoic Acid] | C (a value greater than 10 °C and less than or equal to 25 °C is marked “C”) | A (a TECC value less than 12 is marked “A”) |
| CC(Cc1cccc(C2(C#N)CCCC(C)(C)CS(=O)(=O)CCc3c(c(F)cc4[nH]ccc34)Oc3ccc(F)c(c3)-c3nc2nn3C)c1F)C(=O)O (single isomer, unassigned) [Compound 124B, 3-[3-(6-cyano-22,28-difluoro-3,10,10-trimethyl-12,12-dioxo-24-oxa-12λ6-thia-3,4,19,30-tetrazapentacyclo-[23.3.1.12,5.015,23.016,20]triaconta-1(29),2(30),4,15,17,20,22,25,27-nonaen-6-yl)-2-fluoro-phenyl]-2-methyl-propanoic Acid] | B (a value above 5 °C and less than or equal to 10 °C is marked “B”) | A (a TECC value less than 12 is marked “A”) |
| C[C@@H](Cc1cccc(C2(C)CCCC(C)(C)CS(=O)(=O)CCc3c(c(F)cc4[nH]ccc34)C(=O)c3ccc(F)c(c3)-c3nc2nn3C)c1)C(=O)O (single isomer, unassigned) [Compound 125A] | B (a value above 5 °C and less than or equal to 10 °C is marked “B”) | B (a value between 12-20 is marked “B”) |
| C[C@@H](Cc1cccc(C2(C)CCCC(C)(C)CS(=O)(=O)CCc3c(c(F)cc4[nH]ccc34)C(=O)c3ccc(F)c(c3)-c3nc2nn3C)c1)C(=O)O (single isomer, unassigned) [Compound 125B] | C (a value greater than 10 °C and less than or equal to 25 °C is marked “C”) | B (a value between 12-20 is marked “B”) |
| C[C@H](Cc1cccc(C2(C)CCCC(C)(C)CS(=O)(=O)CCc3c(c(F)cc4[nH]ccc34)C(=O)c3ccc(F)c(c3)-c3nc2nn3C)c1)C(=O)O (single isomer, unassigned) [Compound 126A] | C (a value greater than 10 °C and less than or equal to 25 °C is marked “C”) | B (a value between 12-20 is marked “B”) |
